This is an account of results in patent publication US5288621A, “Pituitary TRH receptor” (Cornell Research Foundation, Inc., priority 1990, dated 1994).

Like-named read-outs stand apart in the source and are kept apart here.

Assay [1] has as its target T1, TRH receptor (TRH-R) expressed in Xenopus oocytes (Mus musculus, UniProt P21761).
T1 construct: injected with RNA transcribed in vitro from the plasmid containing the TRH-R cDNA (pBSmTRHR); expressed in transfected cells; host or cells: Xenopus laevis oocytes injected with in vitro transcribed RNA from pBSmTRHR
T1 sequence (P21761 1-393): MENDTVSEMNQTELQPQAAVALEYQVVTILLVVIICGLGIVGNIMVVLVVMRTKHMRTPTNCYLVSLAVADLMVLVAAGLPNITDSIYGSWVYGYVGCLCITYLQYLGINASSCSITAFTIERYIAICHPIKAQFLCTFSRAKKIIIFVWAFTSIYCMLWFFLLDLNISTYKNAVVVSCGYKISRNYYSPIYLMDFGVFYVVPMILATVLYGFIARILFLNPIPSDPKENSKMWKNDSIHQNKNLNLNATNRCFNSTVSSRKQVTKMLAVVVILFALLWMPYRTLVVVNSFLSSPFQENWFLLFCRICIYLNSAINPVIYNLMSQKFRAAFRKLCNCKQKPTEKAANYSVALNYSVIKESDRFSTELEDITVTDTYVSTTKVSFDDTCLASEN
The experiment in a line: Competition for [3H]methylTRH binding to intact Xenopus oocytes injected with RNA transcribed in vitro from pBSmTRHR.
Protocol: FIG. 2 depicts TRH (the filled squares) and chlordiazepoxide (the unfilled circles) competion for the binding of [^3 H]methylTRH to oocytes expressing TRH receptors 3 days after injection of 5 ng of in vitro transcribed RNA. The results are presented in this figure as mean ± S.E. of duplicate determinations.
Xenopus oocytes were injected with 5 ng of sense RNA transcripts ans assayed for specific binding of TRH and electrophysiological responses to TRH. Binding to intact oocytes was performed as described in the literature [see Molecular Endocrinology 3:9070 (1989)], using 2 nM [^3 H]methylTRH as the labeled ligand, and unlabeled TRH and chlordiazepoxide as competitive inhibitors.
Five to 10 oocytes were incubated at 4° C. in 0.2 ml OR-2 containing 40 nm [^3 H]methylTRH without or with 1 μl unlabeled TRH for up to 3 hours. Oocytes were washed 7 times with 4 ml ice-cold OR-2 solution and radioactivity measured by liquid scintillation counting. Specific binding was calculated by subtracting radioactivity bound in the presence from that in the absence of unlabeled TRH. Nonspecific binding was between 30 and 45% of total binding.

Assay [2] deals with T2, TRH-R expressed in COS-1 cells (Mus musculus, UniProt P21761).
T2 construct: the entire TRH-R cDNA, according to the present invention, contained in a Not I/HindIII fragment was cloned directly into the eukaryotic expression vector pCDM8; expressed in transfected cells; host or cells: COS-1 cells transfected with pCDM8mTRHR
T2 sequence (P21761 1-393): T1 sequence (P21761 1-393)
The experiment in a line: TRH-stimulated inositol phosphate formation in COS-1 cells transfected with pCDM8mTRHR. Format: cell-based. Particulars: labeled with myo-[3H]inositol 48 hours.
Protocol: In FIGS. 6 and 7, COS-1 cells were transfected with the TRH-R cDNA according to the present invention, in the mammalian expression vector pCDM8 (pCDM8m TRHR) and assayed for binding and responses 48 hours later. […] In FIG. 7, COS-1 cells transfected with pCDM8mTRHR were labeled with myo-[^3 H]inositol for 48 hours, washed, and tested for dose-dependent stimulation of inositol phosphate production by TRH. The results are presented as mean ± S.D. of triplicate determinations from one of two similar experiments.
COS-1 cells were transfected using the DEAE dextran method, and after 48 to 72 hours the cells were assayed for [^3 H]methylTRH binding and TRH stimulated inositol phosphate formation.
On the day prior to transfection, 35 mm, 6 well tissue culture plates were seeded with 6×10^5 in DMEM with 10% FCS; cells should be just subconfluent for transfection. A transfection cocktail was prepared: supercoiled plasmid DNA (ethanol precipitated if necessary) was resuspended in 0.3 ml PBS, and then vortexed. 0.1 ml DEAE-dextran was added to bring the final concentration to 0.5 mg/ml, and the solution mixed thoroughly. The tissue culture medium was aspirated from the cell cultures and the COS cells were rinsed twice with 2 ml of PBS warmed to 37° C. […]

Assay [3] addresses T2, TRH-R expressed in COS-1 cells. In words: Competition for [3H]methylTRH binding in COS-1 cells transfected with pCDM8mTRHR. Particulars: 48 hours, read-out: K3 (Ki) for displacement of [3H]methylTRH binding. On the procedure:
In FIGS. 6 and 7, COS-1 cells were transfected with the TRH-R cDNA according to the present invention, in the mammalian expression vector pCDM8 (pCDM8m TRHR) and assayed for binding and responses 48 hours later. Specifically, FIG. 6, depicts the TRH (filled squares) and chlordiazepoxide (unfilled circles) competition for the binding of [^3 H]methylTRH. COS-1 cells transfected with pCDM8mTRHR were assayed for the binding of [^3 H]methylTRH in the presence of increasing amounts of either unlabeled TRH or chlordiazepoxide. Results are presented as mean ± range of data from duplicate determinations in one of two similar experiments. In FIG. 7, COS-1 cells transfected with pCDM8mTRHR were labeled with myo-[^3 H]inositol for 48 hours, washed, and tested for dose-dependent stimulation of inositol phosphate production by TRH. The results are presented as mean ± S.D. of triplicate determinations from one of two similar experiments. […]
No specific binding or TRH stimulated inositol phosphate formation was detectable in untransfected COS-1 cells or cells transfected with pCDM8 alone. As depicted in FIG. 6, [^3 H]methylTRH binding and displacement by TRH and chlordiazepoxide were measured. […]
(In general: Loss of bound radioactivity is the signal in a displacement assay; it reports binding, not function.)

In assay [4] the target is T3, TRH-R expressed in Xenopus oocytes (Mus musculus, UniProt P21761).
T3 construct: injected with RNA transcribed in vitro from the plasmid containing the TRH-R cDNA (pBSmTRHR); expressed in transfected cells; host or cells: Xenopus laevis oocytes injected with in vitro transcribed RNA from pBSmTRHR
T3 sequence (P21761 1-393): T1 sequence (P21761 1-393)
The experiment in a line: Electrophysiological response to TRH in voltage-clamped Xenopus oocytes injected with RNA transcribed from the TRH-R cDNA. Type of assay: cell-based. Particulars: 3 days after injection of 5 ng RNA. As for the experimental part: FIG. 3 more specifically depicts the concentration-response relationship of Xenopus oocytes 3 days following injection of 5 ng of in vitro transcribed RNA. In FIG. 3, the results are presented from two experiments with N≥6.
A single oocyte, in a 0.4 ml perfusion chamber, was impaled with two standard glass electrodes filed with 3M KCl and maintained under voltage clamp using a Dagan 8500 intracellular clamp. Drugs were included in the perfusate and applied at a flow rate of 8 ml/min. The apparent latency is the time between achieving greater than 80% of the perfusate concentration in the perfusion chamber (5.5 sec after switching to TRH) and the initial deflection of the pen on the chart recorder due to membrane depolarization.
RNA was injected (25-50 nl) at the equator of oocytes, and responses were tested 24 to 72 hours after injection.
This dose dependency is the same as that observed in GH3 cells when rapid effects of TRH, such as generation of inositol 1,4,5-triphosphate or elevation of cytoplasmic calcium, were measured [see J Biol Chem 261:2712 (1986) and J Biol Chem 259:5827 (1984)].

A further assay relates to pituitary TRH-R. Particulars: Neuroendocrinology 32:310 (1981); cited from earlier work.

For the compound `NC(=O)[C@@H]1CCCN1C(=O)[C@H](Cc1cnc[nH]1)NC(=O)[C@@H]1CCC(=O)N1` [TRH, thyrotropin releasing hormone], the figures for the Ki in assay [1] and in assay [3] were around 30 nM and 10 nM, respectively. The values for the EC50 in assay [2] and in assay [4] (read-out: TRH concentration giving half-maximal electrophysiological response) were around 10 nM and 10 nM, respectively. Moreover, the “lowest TRH concentration that evoked an electrophysiological response” value in assay [4] is 1 nM. In assay [4] (read-out: TRH concentration giving maximum electrophysiological response), the EC100 is 0.1 µM.
Turning to `CNC1=Nc2ccc(Cl)cc2C(c2ccccc2)=[N+]([O-])C1` [chlordiazepoxide], the Ki in assay [1] (Xenopus oocytes, 3 days after injection of 5 ng in vitro transcribed RNA, calculated, approximate, read-out: apparent inhibition constant (Ki) for inhibition of [3H]methylTRH binding) was around 3000 nM; in assay [3], 20000 nM.
On to [^3 H]methylTRH, for which the “affinity relative to TRH for the pituitary TRH-R (higher)” value in the assay on pituitary TRH-R is recorded as 10 fold.
